# In patent publication US20210227814A1, “A TRANSGENIC INVERTEBRATE MODEL FOR ALZHEIMER'S DISEASE AND USE THEREOF” (National Center for Geriatrics and Gerontology, priority 2017, published 2021):
# How the values were obtained:
# Type in all cases: in vivo
# [1] = test system: transgenic Drosophila expressing GALT6 and SAT1; assay: LC-MS of GM3 ganglioside production in transgenic Drosophila; conditions: Neu5Ac feeding (+) vs (−), 10 mM Neu5Ac/150 mM sucrose solution, heads of adults
# Description: The obtained Drosophila strains were grown on Ebios Cornmeal Sucrose Agar medium at a temperature of 25° C., and in a light-dark cycle of 12 hours. In order to provide a sialic acid donor substrate Neu5Ac, Drosophila was allowed to freely lick filter paper soaked with a 10 mM Neu5Ac/150 mM sucrose solution for 24 hours every other day for 1 to 2 weeks. In order to check whether GM3 ganglioside is produced in the transgenic Drosophila strains prepared, liquid chromatography mass spectrometry (LC-MS) was carried out. The spectrometry was carried out with respect to the following Drosophila strains: (1) wild type (Neu5Ac feeding (−)) (negative control) (2) transgenic Drosophila expressing GALT6 alone (Neu5Ac feeding (−)), (3) transgenic Drosophila expressing GALT6 and SAT1 (Neu5Ac feeding (−)), (4) transgenic Drosophila expressing GALT6 and SAT1 (Neu5Ac feeding (+)), (5) transgenic Drosophila expressing SAT1 alone (Neu5Ac feeding (+)), and (6) transgenic Drosophila expressing GALT6, SAT1 and GNE (Neu5Ac feeding (−)). For each of the transgenic Drosophila strains, 200 to 1000 heads of adults were collected. To the heads, TBS buffer (50 mM Tris-HCl (pH7.6), 150 mM NaCl) was added, and the mixture was homogenized, and then dried. The obtained pellet was suspended in a solution mixture of chloroform: methanol (v/v=2:1) and a lipid extraction liquid was collected. […]
# [2] = test system: transgenic Drosophila strain expressing GALT6, SAT1 and Dut40; assay: Western blotting of aggregated Aβ (TBS insoluble fraction) in brain tissue; conditions: Neu5Ac feeding (+) compared to (−), GALT6, SAT1 and Dut40 flies
# Description: The obtained Drosophila strains were grown on Ebios Cornmeal Sucrose Agar medium at a temperature of 25° C., and in a light-dark cycle of 12 hours. In order to provide a sialic acid donor substrate Neu5Ac, Drosophila was allowed to freely lick filter paper soaked with a 10 mM Neu5Ac/150 mM sucrose solution for 24 hours every other day for 1 to 2 weeks. To confirm whether of GM3 ganglioside-dependent aggregated Aβ is accumulated in the transgenic Drosophila co-expressing GM3 ganglioside and Dut40, a sample prepared from the brain tissue of a transgenic Drosophila strain expressing GALT6, SAT1 and Dut40, was subjected to western blotting. From 100 heads of adults of each of the transgenic Drosophila strain expressing GALT6, SAT1 and Dut40 (Neu5Ac feeding (−)) and the transgenic Drosophila expressing GALT6, SAT1 and Dut40 (Neu5Ac feeding (+)), were collected, homogenized in TBS buffer and subjected to ultracentrifugation (100,000 g, one hour, 4° C.). The supernatant was collected (TBS soluble fraction). The remaining sediment was again homogenized in 100% formic acid and centrifuged (14,000 rpm, 20 minutes, 25° C.) to remove unnecessary components. […] Bands were detected by ECL western blotting detection system (GE Healthcare Life Sciences). The bands detected were analyzed by Image Analysis Software (ImageJ, made by the National Institutes of Health) to convert into numerical values. […]
# [3] = test system: transgenic Drosophila strains expressing Dut40; assay: Western blotting of aggregated Aβ in Drosophila expressing only Dut40; conditions: Neu5Ac feeding (−) or (+); flies expressing Dut40 only
compound,measurement,setting,value
CC(=O)N[C@H]1[C@H]([C@@H](O)[C@@H](O)CO)O[C@@](O)(C(=O)O)C[C@@H]1O [Neu5Ac],production of GM3 ganglioside,[1],confirmed
same,amount of aggregated Dut40,[2],increased
same,effect on the aggregation of Dut40,[3],does not have an effect
